Test results from PubChem BioAssay (NCI).
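Grown in 96-well plates, cells were treated for 48 hours with each compound at five concentrations. Insufficient inhibition: endpoint recorded as highest concentration tested. GI50: concentration for 50% inhibition of growth. The concentration for full growth arrest is given as TGI.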

Key:
Test in all cases: NCI-60 cell line screen, 48 h
ACHN renal = test system: ACHN renal
BT-549 breast = test system: BT-549 breast
HS 578T breast = test system: HS 578T breast
K-562 leukemia = test system: K-562 leukemia
MCF7 breast = test system: MCF7 breast
MOLT-4 leukemia = test system: MOLT-4 leukemia
NCI-H522 lung = test system: NCI-H522 lung
SF-295 CNS = test system: SF-295 CNS
SK-MEL-5 melanoma = test system: SK-MEL-5 melanoma
SK-OV-3 ovarian = test system: SK-OV-3 ovarian

## N=c1ccc2nc3ccc(N)cc3sc-2c1
ACHN renal
  GI50: 8550 nM
  TGI: 23.2 µM
BT-549 breast
  GI50: 10600 nM
  TGI: 60.9 µM
HS 578T breast
  GI50: 20900 nM
  TGI: > 100 µM
K-562 leukemia
  GI50: 4470 nM
  TGI: 74.9 µM
MCF7 breast
  GI50: 3500 nM
  TGI: 13.1 µM
MOLT-4 leukemia
  GI50: 4590 nM
  TGI: > 100 µM
NCI-H522 lung
  GI50: 2240 nM
  TGI: 7 µM
SF-295 CNS
  GI50: 4.28 µM
  TGI: 59.1 µM
SK-MEL-5 melanoma
  GI50: 1700 nM
  TGI: 3.53 µM
SK-OV-3 ovarian
  GI50: 15.6 µM
  TGI: 63.5 µM

## Cc1ccc(S(=O)(=O)c2nc(-c3ccccc3)oc2S(C)(=O)=O)cc1
ACHN renal
  GI50: 1760 nM
  TGI: 3.13 µM
BT-549 breast
  GI50: 1850 nM
  TGI: 3.72 µM
HS 578T breast
  GI50: 10100 nM
  TGI: 43.8 µM
K-562 leukemia
  GI50: 1590 nM
  TGI: 4.3 µM
MOLT-4 leukemia
  GI50: 2270 nM
  TGI: 5.87 µM
NCI-H522 lung
  GI50: 1520 nM
  TGI: 3.3 µM
SF-295 CNS
  GI50: 12.2 µM
  TGI: 24.6 µM
SK-OV-3 ovarian
  GI50: 15.9 µM
  TGI: 29.3 µM

## O=C1CCC2(c3ccccc3)Nc3ccccc3N12 (centres undefined)
ACHN renal
  TGI: > 100 µM
K-562 leukemia
  TGI: > 100 µM
MOLT-4 leukemia
  TGI: > 100 µM
NCI-H522 lung
  TGI: > 100 µM
SF-295 CNS
  TGI: > 100 µM
SK-MEL-5 melanoma
  TGI: > 100 µM

## CC(/C=C/C(O)=C1/C(=O)CNC1=O)=C\[C@@H](C)[C@H]1O[C@@]2(C)O[C@H](C(=O)[C@@H]3O[C@@]32C)[C@@H]1C
ACHN renal
  TGI: 41.9 µM
BT-549 breast
  TGI: 36.3 µM
HS 578T breast
  TGI: 52.1 µM
K-562 leukemia
  TGI: > 100 µM
MCF7 breast
  TGI: 39.8 µM
MOLT-4 leukemia
  TGI: 72.2 µM
SK-MEL-5 melanoma
  TGI: 40.4 µM
SK-OV-3 ovarian
  TGI: 46.8 µM

## C=C1C(=O)C23[C@H](O)C1CC[C@H]2[C@]12COC3(O)[C@@H](O)[C@@H]1C(C)(C)CC[C@@H]2O
ACHN renal
  TGI: 30.2 µM
K-562 leukemia
  TGI: 15.6 µM
MOLT-4 leukemia
  TGI: 33.1 µM
NCI-H522 lung
  TGI: 1.9 µM
SF-295 CNS
  TGI: 32.2 µM
SK-MEL-5 melanoma
  TGI: 28.6 µM
SK-OV-3 ovarian
  TGI: 31 µM

## COc1ccccc1-c1cc(=O)c2cc(C)c(C)c(C(=O)O)c2o1
ACHN renal
  TGI: > 100 µM
K-562 leukemia
  TGI: > 100 µM
MOLT-4 leukemia
  TGI: > 100 µM
NCI-H522 lung
  TGI: > 100 µM
SF-295 CNS
  TGI: > 100 µM
SK-MEL-5 melanoma
  TGI: > 100 µM
SK-OV-3 ovarian
  TGI: > 100 µM

## OC1=CN=COc2ccccc21
ACHN renal
  TGI: > 100 µM
K-562 leukemia
  TGI: > 100 µM
MOLT-4 leukemia
  TGI: > 100 µM
SF-295 CNS
  TGI: > 100 µM
SK-OV-3 ovarian
  TGI: > 100 µM

## CC1(C)COC2C(N(Cc3ccccc3)Cc3ccccc3)C(=O)N21 (centres undefined)
ACHN renal
  TGI: > 100 µM
K-562 leukemia
  TGI: 82.9 µM
MOLT-4 leukemia
  TGI: > 100 µM
NCI-H522 lung
  TGI: 45.6 µM
SF-295 CNS
  TGI: 88.8 µM
SK-MEL-5 melanoma
  TGI: > 100 µM
SK-OV-3 ovarian
  TGI: 66.1 µM

## CN(C)c1ccc(/C=C(\NC(=O)c2ccccc2)c2nc3ccc4c(c3[nH]2)C(=O)c2ccccc2C4=O)cc1
K-562 leukemia
  TGI: > 100 µM
MOLT-4 leukemia
  TGI: 31.3 µM
NCI-H522 lung
  TGI: > 100 µM
SF-295 CNS
  TGI: > 100 µM
SK-MEL-5 melanoma
  TGI: > 100 µM
SK-OV-3 ovarian
  TGI: > 100 µM

## C#CCN(N=O)C(=O)ON1C(=O)CCC1=O
ACHN renal
  TGI: > 100 µM
K-562 leukemia
  TGI: > 100 µM
MOLT-4 leukemia
  TGI: > 100 µM
NCI-H522 lung
  TGI: > 100 µM
SF-295 CNS
  TGI: > 100 µM
SK-MEL-5 melanoma
  TGI: > 100 µM
SK-OV-3 ovarian
  TGI: > 100 µM

## COc1cc2c(c3c1c(=O)c1ccccc1n3C)C=CC(C)(C)O2
ACHN renal
  TGI: > 100 µM
K-562 leukemia
  TGI: > 100 µM
MOLT-4 leukemia
  TGI: > 100 µM
NCI-H522 lung
  TGI: 50.7 µM
SF-295 CNS
  TGI: > 100 µM
SK-MEL-5 melanoma
  TGI: > 100 µM
SK-OV-3 ovarian
  TGI: > 100 µM

## COC/N=C(\NC#N)NCOC
ACHN renal
  TGI: > 100 µM
K-562 leukemia
  TGI: > 100 µM
MOLT-4 leukemia
  TGI: > 100 µM
NCI-H522 lung
  TGI: > 100 µM
SF-295 CNS
  TGI: > 100 µM
SK-MEL-5 melanoma
  TGI: > 100 µM
SK-OV-3 ovarian
  TGI: > 100 µM

## C=C1C(=O)O[C@H]2[C@H]1CC/C(COC(=O)NCc1ccc(Cn3c(=O)sn(CCCCC)c3=O)cc1)=C\CC[C@@]1(C)O[C@@H]21
ACHN renal
  GI50: 1680 nM
  TGI: 3.14 µM
BT-549 breast
  GI50: 1910 nM
  TGI: 4.62 µM
HS 578T breast
  GI50: 2790 nM
  TGI: 14 µM
MOLT-4 leukemia
  GI50: 590 nM
  TGI: 4.06 µM
NCI-H522 lung
  GI50: 1590 nM
  TGI: 3.1 µM
SF-295 CNS
  GI50: 12.5 µM
  TGI: 25.1 µM
SK-MEL-5 melanoma
  GI50: 3920 nM
  TGI: 14.3 µM
SK-OV-3 ovarian
  GI50: 8.77 µM
  TGI: 21.1 µM

## CCOc1ccc(N=C(NC(=O)c2ccccc2)SC)cc1
ACHN renal
  TGI: > 100 µM
K-562 leukemia
  TGI: > 100 µM
MOLT-4 leukemia
  TGI: > 100 µM
SF-295 CNS
  TGI: > 100 µM
SK-MEL-5 melanoma
  TGI: > 100 µM
SK-OV-3 ovarian
  TGI: > 100 µM

## ClCc1cccc(Cn2cnc3c(Cl)nc(Cl)nc32)c1
ACHN renal
  GI50: 1910 nM
  TGI: 3.72 µM
BT-549 breast
  GI50: 1690 nM
  TGI: 3.23 µM
K-562 leukemia
  GI50: 1600 nM
  TGI: > 100 µM
MCF7 breast
  GI50: 2040 nM
  TGI: 6.4 µM
MOLT-4 leukemia
  GI50: 3350 nM
  TGI: > 100 µM
NCI-H522 lung
  GI50: 2720 nM
  TGI: 5.32 µM
SF-295 CNS
  GI50: 4.37 µM
  TGI: 17.1 µM
SK-MEL-5 melanoma
  GI50: 1590 nM
  TGI: 3.05 µM

## COc1cc(OC)c2sc(-c3ccc(-n4cncc4-c4ccc(OC)c(OC)c4)cc3)nc2c1
ACHN renal
  GI50: > 100000 nM
  TGI: > 100 µM
BT-549 breast
  GI50: 9120 nM
  TGI: > 100 µM
K-562 leukemia
  GI50: 5880 nM
  TGI: > 100 µM
MCF7 breast
  GI50: 5370 nM
  TGI: > 100 µM
NCI-H522 lung
  GI50: 5270 nM
  TGI: 76.9 µM
SF-295 CNS
  GI50: 7 µM
  TGI: > 100 µM
SK-MEL-5 melanoma
  GI50: 3610 nM
  TGI: > 100 µM
SK-OV-3 ovarian
  GI50: > 100 µM
  TGI: > 100 µM

## CCCC1(CN2c3ccccc3Sc3ccc(Cl)cc32)CCN(CC)C1 (centres undefined)
ACHN renal
  GI50: 1760 nM
  TGI: 3.31 µM
BT-549 breast
  GI50: 1800 nM
  TGI: 3.37 µM
HS 578T breast
  GI50: 1830 nM
  TGI: 4.88 µM
MCF7 breast
  GI50: 1860 nM
  TGI: 3.5 µM
MOLT-4 leukemia
  GI50: 3270 nM
  TGI: > 100 µM
NCI-H522 lung
  GI50: 1900 nM
  TGI: 3.64 µM
SF-295 CNS
  GI50: 1.7 µM
  TGI: 3.3 µM
SK-MEL-5 melanoma
  GI50: 1620 nM
  TGI: 3 µM
SK-OV-3 ovarian
  GI50: 1.77 µM
  TGI: 3.45 µM

## Cc1cc(NCc2cc(Nc3ccnc4cc(Cl)ccc34)ccc2F)nc(N2CCOCC2)n1
HS 578T breast
  GI50: 2070 nM
  TGI: 6.97 µM
K-562 leukemia
  GI50: 1730 nM
  TGI: 6.18 µM
MCF7 breast
  GI50: 2120 nM
  TGI: 6.15 µM
MOLT-4 leukemia
  GI50: 2950 nM
  TGI: > 100 µM
NCI-H522 lung
  GI50: 1840 nM
  TGI: 4.39 µM
SK-OV-3 ovarian
  GI50: 1.7 µM
  TGI: 3.36 µM

## COc1ccc(Nc2nc(Nc3cc(C)[nH]n3)c3cc(OC)c(OC)cc3n2)cc1
ACHN renal
  GI50: 1450 nM
  TGI: 2.78 µM
BT-549 breast
  GI50: 1400 nM
  TGI: 2.9 µM
HS 578T breast
  GI50: 1250 nM
  TGI: 3.15 µM
MCF7 breast
  GI50: 457 nM
  TGI: 2.05 µM
MOLT-4 leukemia
  GI50: 389 nM
  TGI: 2.58 µM
NCI-H522 lung
  GI50: 1440 nM
  TGI: 4.48 µM
SF-295 CNS
  GI50: 1.33 µM
  TGI: 2.68 µM
SK-MEL-5 melanoma
  GI50: 1370 nM
  TGI: 3.05 µM
SK-OV-3 ovarian
  GI50: 1.83 µM
  TGI: 3.33 µM

## CCCC(=O)N[C@H]1CCc2cc(OC)c(OC)c(OC)c2-c2ccc(SC)c(=O)cc21
ACHN renal
  TGI: > 57.1 µM
BT-549 breast
  TGI: < 0.01 µM
K-562 leukemia
  TGI: > 100 µM
MCF7 breast
  TGI: > 100 µM
MOLT-4 leukemia
  TGI: > 66.2 µM
NCI-H522 lung
  TGI: < 0.01 µM
SF-295 CNS
  TGI: < 0.01 µM
SK-MEL-5 melanoma
  TGI: < 0.0989 µM
SK-OV-3 ovarian
  TGI: 5.75 µM
